# Measured values taken from patent publication EP0318056A2, “Novel antibiotics and process for preparing the same” (MEIJI SEIKA KAISHA LTD., priority 1987, dated 1989).
# Key:
# [1] = tested on: Bacillus anthracis No. 119; test: microbe, parasite or virus in culture; format: cell-based; details: NO.119, read-out: Minimum Inhibitory Concn.
# [2] = tested on: Citrobacter freundii GN 346; test: Antimicrobial activity, serial dilution method on agar plate; format: cell-based; details: GN346, read-out: Minimum Inhibitory Concn.
# Description: (§1) The antimicrobial activity of SF2582 A and B on various test microorganisms shown in Table 2 below were determined by the serial dilution method on agar plate, and the minimum inhibitory concentrations (µg/ml) obtained are shown in Table 2 below.
# [3] = tested on: Enterococcus faecalis ATCC 8043; test: as above; format: cell-based; details: ATCC8043, read-out: Minimum Inhibitory Concn.
# Description: as §1
# Escherichia coli JC-2 = test: as above; format: cell-based; details: JC2, read-out: Minimum Inhibitory Concn.
# Description: as §1
# [4] = tested on: Escherichia coli JR 661 W/677; test: as above; format: cell-based; details: JR661W/677, read-out: Minimum Inhibitory Concn.
# Description: as §1
# Escherichia coli No. 29 = test: as above; format: cell-based; details: read-out: Minimum Inhibitory Concn.
# Description: as §1
# [5] = tested on: Escherichia coli W 3630 RGN 823; test: as above; format: cell-based; details: W3630RGN823, read-out: Minimum Inhibitory Concn.
# Description: as §1
# [6] = tested on: Klebsiella pneumoniae 22 #3038; test: as above; format: cell-based; details: read-out: Minimum Inhibitory Concn.
# Description: as §1
# [7] = tested on: Klebsiella pneumoniae PCI 602; test: as above; format: cell-based; details: PCI602, read-out: Minimum Inhibitory Concn.
# Description: as §1
# [8] = tested on: Manthomonas maltophilia M-0627; test: as above; format: cell-based; details: read-out: Minimum Inhibitory Concn.
# Description: as §1
# Morganella morganii Kono = test: as above; format: cell-based; details: read-out: Minimum Inhibitory Concn.
# Description: as §1
# Proteus mirabilis GN 310 = test: as above; format: cell-based; details: GN310, read-out: Minimum Inhibitory Concn.
# Description: as §1
# Proteus vulgaris OX 19 = test: as above; format: cell-based; details: OX19, read-out: Minimum Inhibitory Concn.
# Description: as §1
# [9] = tested on: Providencia rettgeri J-0026; test: as above; format: cell-based; details: J0026, read-out: Minimum Inhibitory Concn.
# Description: as §1
# [10] = tested on: Pseudomonas aeruginosa MB-3829; test: as above; format: cell-based; details: MB3829, read-out: Minimum Inhibitory Concn.
# Description: as §1
# [11] = tested on: Salmonella enteritidis No. 11; test: as above; format: cell-based; details: Salmonella enterica, read-out: Minimum Inhibitory Concn.
# Description: as §1
# Salmonella sp. D-0001 = test: as above; format: cell-based; details: SP.D0001, read-out: Minimum Inhibitory Concn.
# Description: as §1
# Salmonella typhi O-901-W = test: as above; format: cell-based; details: Salmonella enterica, read-out: Minimum Inhibitory Concn.
# Description: as §1
# [12] = tested on: Salmonella typhimurium LT-2; test: as above; format: cell-based; details: Salmonella enterica, read-out: Minimum Inhibitory Concn.
# Description: as §1
# [13] = tested on: Serratia marcescens MB-3848; test: as above; format: cell-based; details: MB3848, read-out: Minimum Inhibitory Concn.
# Description: as §1
# [14] = tested on: Shigella sonnei EW 33 Type 1; test: as above; format: cell-based; details: EW33TYPE1, read-out: Minimum Inhibitory Concn.
# Description: as §1
# [15] = tested on: Staphylococcus aureus 209P JC-1; test: as above; format: cell-based; details: read-out: Minimum Inhibitory Concn.
# Description: as §1
# [16] = tested on: Staphylococcus aureus No. 26; test: as above; format: cell-based; details: read-out: Minimum Inhibitory Concn.
# Description: as §1
# [17] = tested on: Staphylococcus aureus Smith S-424; test: as above; format: cell-based; details: SMITHS424, read-out: Minimum Inhibitory Concn.
# Description: as §1
# [18] = tested on: Staphylococcus epidermidis 109; test: as above; format: cell-based; details: read-out: Minimum Inhibitory Concn.
# Description: as §1
# [19] = tested on: Staphylococcus epidermidis ATCC 14990; test: as above; format: cell-based; details: ATCC14990, read-out: Minimum Inhibitory Concn.
# Description: as §1
# P-388 tumor cells = test: Antitumor activity in mice intraperitoneally implanted with P-388 tumor cells; format: in vivo; details: P-388 mice
# [20] = qualitative, in the named solvents
# in vivo = details: mouse, ip
# P-388 = test: Cytotoxicity on tumor cells; format: cell-based; details: P388; P-388, mouse leukemia; 37°C, 72 hours, 5% CO₂; probit method; read-out: IC₅₀
# L-1210 = test: Cytotoxicity on tumor cells; format: cell-based; details: L1210; L-1210, mouse leukemia; 37°C, 72 hours, 5% CO₂; probit method; read-out: IC₅₀
# Meth-A = test: Cytotoxicity on tumor cells; format: cell-based; details: mouse fibrosarcoma, 37°C, 72 hours, 5% CO₂, probit method, read-out: IC₅₀
# B16 = test: Cytotoxicity on tumor cells; format: cell-based; details: B16, mouse melanoma; 37°C, 72 hours, 5% CO₂; probit method; read-out: IC₅₀
# K562 = test: Cytotoxicity on tumor cells; format: cell-based; details: K562, human leukaemia; 37°C, 72 hours, 5% CO₂; probit method; read-out: IC₅₀
# PC10 = test: Cytotoxicity on tumor cells; format: cell-based; details: PC10, human lung cancer; 37°C, 72 hours, 5% CO₂; probit method; read-out: IC₅₀
# PC13 = test: Cytotoxicity on tumor cells; format: cell-based; details: PC-13; PC13, human lung cancer; 37°C, 72 hours, 5% CO₂; probit method; read-out: IC₅₀
# PC14 = test: Cytotoxicity on tumor cells; format: cell-based; details: PC-14; PC14, human lung cancer; 37°C, 72 hours, 5% CO₂; probit method; read-out: IC₅₀
# HMV-1 = test: Cytotoxicity on tumor cells; format: cell-based; details: HMV-1, human melanoma; 37°C, 72 hours, 5% CO₂; probit method; read-out: IC₅₀
# KB = test: Cytotoxicity on tumor cells; format: cell-based; details: human nasopharynx, 37°C, 72 hours, 5% CO₂, probit method, read-out: IC₅₀
# HL-60 = test: Cytotoxicity on tumor cells; format: cell-based; details: HL-60, human leukemia; 37°C, 72 hours, 5% CO₂; probit method; read-out: IC₅₀
# [21] = mice, dose of 200 mg/kg (i.p.)
SMILES,MIC [1] [µg/mL],MIC [2] [µg/mL],MIC [3] [µg/mL],MIC (Escherichia coli JC-2) [µg/mL],MIC [4] [µg/mL],MIC (Escherichia coli No. 29) [µg/mL],MIC [5] [µg/mL],MIC [6] [µg/mL],MIC [7] [µg/mL],MIC [8] [µg/mL],MIC (Morganella morganii Kono) [µg/mL],MIC (Proteus mirabilis GN 310) [µg/mL],MIC (Proteus vulgaris OX 19) [µg/mL],MIC [9] [µg/mL],MIC [10] [µg/mL],MIC [11] [µg/mL],MIC (Salmonella sp. D-0001) [µg/mL],MIC (Salmonella typhi O-901-W) [µg/mL],MIC [12] [µg/mL],MIC [13] [µg/mL],further results
COC(=O)C1(C)Nc2c(O)cc3c(c2C1=O)CC(Cl)CN3C(=O)c1cc2cc(OC)c(OC)c(OC)c2[nH]1 (stereo not shown) [SF2582 B],0.05,6.25,0.1,25,25,12.5,12.5,> 100,50,100,50,25,50,25,50,1.56,25,3.13,25,25,"MIC [14]: 6.25 µg/mL; MIC [15]: 0.05 µg/mL; MIC [16]: < 0.025 µg/mL; MIC [17]: < 0.025 µg/mL; MIC [18]: 0.05 µg/mL; MIC [19]: 0.05 µg/mL; T/C (effect of improving incidence of survival) (P-388 tumor cells; dose 0.16 mg/kg intraperitoneally, only once): 117%; T/C (effect of improving incidence of survival) (P-388 tumor cells; dose 0.63 mg/kg intraperitoneally, only once): 159%; T/C (effect of improving incidence of survival) (P-388 tumor cells; dose 2.5 mg/kg intraperitoneally, only once): 159%; T/C (effect of improving incidence of survival) (P-388 tumor cells; dose 10.0 mg/kg intraperitoneally, only once): 80%; Solubility [20]: soluble in methanol, ethyl acetate, acetone, chloroform, or dimethyl sufoxide; insoluble in water or haxane; LD50 at 336 h (in vivo): 1 to 2 mg/kg"
COC(=O)C1(C)Nc2c(O)cc3c(c2C1=O)C(CO)CN3C(=O)c1cc2cc(OC)c(OC)c(OC)c2[nH]1 (stereo not shown),,,,,,,,,,,,,,,,,,,,,IC50 (P-388): 9.4 µg/mL; IC50 (L-1210): 1.3 µg/mL; IC50 (Meth-A): 42 µg/mL; IC50 (B16): 5.1 µg/mL; IC50 (K562): 35.6 µg/mL; IC50 (PC10): 14.1 µg/mL; IC50 (PC13): 39.5 µg/mL; IC50 (PC14): > 50 µg/mL; IC50 (HMV-1): 12.1 µg/mL; IC50 (KB): 18 µg/mL; IC50 (HL-60): 31.5 µg/mL; death in acute toxicity test [21]: no case of death
COC(=O)C1(C)Nc2c(O)cc3c(c2C1=O)C(CCl)CN3C(=O)c1cc2cc(OC)c(OC)c(OC)c2[nH]1 (stereo not shown) [SF2582 A],0.05,3.13,0.05,12.5,12.5,6.25,6.25,25,25,100,50,25,> 100,25,25,0.78,12.5,3.13,12.5,25,"MIC [14]: 3.13 µg/mL; MIC [15]: < 0.025 µg/mL; MIC [16]: < 0.025 µg/mL; MIC [17]: < 0.025 µg/mL; MIC [18]: < 0.025 µg/mL; MIC [19]: 0.05 µg/mL; T/C (effect of improving incidence of survival) (P-388 tumor cells; dose 0.033 mg/kg intraperitoneally, once a day for consecutive 2 days): 114%; T/C (effect of improving incidence of survival) (P-388 tumor cells; dose 0.13 mg/kg intraperitoneally, once a day for consecutive 2 days): 148%; T/C (effect of improving incidence of survival) (P-388 tumor cells; dose 0.54 mg/kg intraperitoneally, once a day for consecutive 2 days): 128%; T/C (effect of improving incidence of survival) (P-388 tumor cells; dose 2.14 mg/kg intraperitoneally, once a day for consecutive 2 days): 80%; Solubility [20]: soluble in methanol, ethyl acetate, acetone, chloroform, or dimethyl sufoxide; insoluble in water or haxane; LD50 at 336 h (in vivo): 0.25 to 1 mg/kg"
